# Source: patent US20090081157A1, “Immunostimulatory Combinations for Vaccine Adjuvants” (priority 2006, published 2009)
# Tests used:
# [1] = intravenous infusion, humans with non-small cell lung cancer; cited from earlier work
# B16-F10 tumors = assay: Peritumoral immunotherapy of established B16-F10 melanoma tumors; type: in vivo, C57BL/6 mice; details: figure legends
# Experimental: BALB/c mice were injected with 1×10^6 A 20 tumor cells s.c. and […] mice were injected with 1×10^6 B16-F10 tumor cells s.c. After a palpable tumor appeared (>4 mm), 50 μl PBS or plasmid DNA (50 μg) with or without TLR agonist molecules was injected into and around the tumors every other day×5. Tumors were measured every other day.
# […] mice were injected with 1×10^6 B16-F10 tumor cells s.c. After a palpable tumor appeared (>4 mm), 50 μl PBS or plasmid DNA (50 μg) with or without TLR agonist, in the presence or absence of cationic polymer (JetPEI™ Qbiogene Irvine, Calif.) molecules, was injected into and around the tumors every other day×5. Tumors were measured every other day.
# Methods: B16-F10 melanoma cells were cultured in RPMI 1640 with 10% fetal bovine serum. Cells were detached with trypsin-EDTA and washed in phosphate-buffered saline (PBS). Then, 10E5 cells in 100 ul PBS were injected subcutaneously over the abdomen of female C57BL/6 female mice, 6- to 9-weeks old (Jackson Laboratories). […]
# ATPγS, a nonhydrolyzable form of ATP was added to various agonists (pSP-D-CD40L+CpG+poly(I:C)+ATPe) and the combination was injected intratumorally in to mice presenting established B16F1 melanomas. […] Tumor size was measured every other day and plotted as the product of two orthogonal diameters (i.e., “tumor area”). […]
Compound,maximum tolerated dose [1],synergy with CD40L against established B16-F10 tumors (B16-F10 tumors)
"Nc1ncnc2c1ncn2[C@@H]1O[C@H](COP(=O)(O)OP(=O)(O)OP(=O)(O)O)[C@@H](O)[C@H]1O [ATP, adenosine 5′-triphosphate]",50 ug/kg per minute,–
polyriboinosinic-polyribocytidylic acid [Poly I:C],–,synergizes with CD40L
